Assay: HCV replicon assay (luciferase reporter, ET cell line)
Assay type: cell-based
Details: Hepatitis C virus, HCV replicon luciferase activity in ET cells
Summary of the method: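 ET cells carry a stable luciferase-ubiquitin-neo/NS3-5B subgenomic HCV replicon with adaptive mutations. Compounds (0.1 nM to […], 0.5% DMSO) were added 24 h after plating, and luciferase was read 48-72 h later. EC50 came from 10-point 2-fold dilutions fitted to a Hill equation; TC50 was measured in parallel by WST-1.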

SMILES | inhibition at 10 µM [%]
O=C(Cc1c(C(=O)N2CCC(c3ccc(F)cc3)C2)nc2c(C(F)(F)F)cc(-c3ccoc3)cn12)NC1CC1 (centres unmarked) [Compound 242, N-Cyclopropyl-2-{2-[3-(4-fluoro-phenyl)-pyrrolidine-1-carbonyl]-6-furan-3-yl-8-trifluoromethyl-imidazo[1,2-a]pyridin-3-yl}-acetamide] | 93
Cc1noc(Cc2c(C(=O)N3CCC(c4ccc(F)cc4)C3)nc3c(C(F)(F)F)cc(-c4ccoc4)cn23)n1 (centres unmarked) [Compound 243, [3-(4-Fluoro-phenyl)-pyrrolidin-1-yl]-[6-furan-3-yl-3-(3-methyl-[1,2,4]oxadiazol-5-ylmethyl)-8-trifluoromethyl-imidazo[1,2-a]pyridin-2-yl]-methanone] | 86.2
CNC(=O)Cc1c(C(=O)N2CCC(c3ccc(F)cc3)C2)nc2c(C(F)(F)F)cc(-c3ccoc3)cn12 (centres unmarked) [Compound 245, 2-{2-[3-(4-Fluoro-phenyl)-pyrrolidine-1-carbonyl]-6-furan-3-yl-8-trifluoromethyl-imidazo[1,2-a]pyridin-3-yl}-N-methyl-acetamide] | 63.9
O=C(NCc1cccs1)c1cn2nc(-c3ccccc3)cc(C(F)(F)F)c2n1 [Compound 248, 6-Phenyl-8-trifluoromethyl-imidazo[1,2-b]pyridazine-2-carboxylic Acid (thiophen-2-ylmethyl)-amide] | 45.8
O=C(NCc1cccs1)c1nc2c(C(F)(F)F)cc(-c3ccccc3)nn2c1Cl [Compound 249, 3-Chloro-6-phenyl-8-trifluoromethyl-imidazo[1,2-b]pyridazine-2-carboxylic Acid(thiophen-2-ylmethyl)-amide] | 81.4
O=C(NCc1cccs1)c1nc2c(C(F)(F)F)cc(-c3ccccc3)nn2c1Br [Compound 250, 3-Bromo-6-phenyl-8-trifluoromethyl-imidazo[1,2-b]pyridazine-2-carboxylic Acid(thiophen-2-ylmethyl)-amide] | 92
O=C(c1cn2cc(-c3ccoc3)cc(C(F)(F)F)c2n1)N1CCC(c2ccc(F)cc2)C1 (centres unmarked) [Compound 251, [3-(4-Fluoro-phenyl)-pyrrolidin-1-yl]-(6-furan-3-yl-8-trifluoromethyl-imidazo[1,2-a]pyridin-2-yl)-methanone] | 93.4
O=C(c1nc2c(C(F)(F)F)cc(-c3ccccc3)nn2c1Br)N1CCC(c2ccc(F)cc2)C1 (centres unmarked) [Compound 252, (3-Bromo-6-phenyl-8-trifluoromethyl-imidazo[1,2-b]pyridazin-2-yl)-[3-(4-fluoro-phenyl)-pyrrolidin-1-yl]-methanone] | 84.8
O=C(c1nc2c(C(F)(F)F)cc(-c3ccoc3)cn2c1Br)N1CCC(c2ccc(F)cc2)C1 (centres unmarked) [Compound 253, (3-Bromo-6-furan-3-yl-8-trifluoromethyl-imidazo[1,2-a]pyridin-2-yl)-[3-(4-fluoro-phenyl)-pyrrolidin-1-yl]-methanone] | 98
O=C(c1nc2c(C(F)(F)F)cc(-c3ccoc3)cn2c1-c1ccoc1)N1CCC(c2ccc(F)cc2)C1 (centres unmarked) [Compound 254, (3,6-Di-furan-3-yl-8-trifluoromethyl-imidazo[1,2-a]pyridin-2-yl)-[3-(4-fluoro-phenyl)-pyrrolidin-1-yl]-methanone] | 46.9
O=C(c1cn2cc(-c3cn[nH]c3)cc(C(F)(F)F)c2n1)N1CCC(c2ccc(F)cc2)C1 (centres unmarked) [Compound 255, [3-(4-Fluoro-phenyl)-pyrrolidin-1-yl]-[6-(1H-pyrazol-4-yl)-8-trifluoromethyl-imidazo[1,2-a]pyridin-2-yl]-methanone] | 76.6
O=C(c1nc2c(C(F)(F)F)cc(-c3cn[nH]c3)cn2c1Br)N1CCC(c2ccc(F)cc2)C1 (centres unmarked) [Compound 256, [3-Bromo-6-(1H-pyrazol-4-yl)-8-trifluoromethyl-imidazo[1,2-a]pyridin-2-yl]-[3-(4-fluoro-phenyl)-pyrrolidin-1-yl]-methanone] | 92
O=C(c1nc2c(C(F)(F)F)cc(-c3cn[nH]c3)cn2c1Cl)N1CCC(c2ccccc2F)C1 (centres unmarked) [Compound 257, [3-Chloro-6-(1H-pyrazol-4-yl)-8-trifluoromethyl-imidazo[1,2-a]pyridin-2-yl]-[3-(2-fluoro-phenyl)-pyrrolidin-1-yl]-methanone] | 92.2
O=C(c1nc2c(C(F)(F)F)cc(-c3cn[nH]c3)cn2c1Cl)N1CCC(c2cccc(F)c2)C1 (centres unmarked) [Compound 258, [3-Chloro-6-(1H-pyrazol-4-yl)-8-trifluoromethyl-imidazo[1,2-a]pyridin-2-yl]-[3-(3-fluoro-phenyl)-pyrrolidin-1-yl]-methanone] | 91
O=C(c1nc2c(C(F)(F)F)cc(-c3ccoc3)cn2c1Cl)N1CC=C(c2ccccc2)C1 [Compound 259, (3-chloro-6-furan-3-yl-8-trifluoromethyl-imidazo[1,2-a]pyridin-2-yl)-(3-phenyl-2,5-dihydro-pyrrol-1-yl)-methanone] | 99.4
O=C(c1nc2c(C(F)(F)F)cc(-c3ccoc3)cn2c1Cl)N1CCC(c2ccccc2)C1 (centres unmarked) [Compound 260, (3-Chloro-6-furan-3-yl-8-trifluoromethyl-imidazo[1,2-a]pyridin-2-yl)-(3-phenyl-pyrrolidin-1-yl)-methanone] | 96

SMILES | inhibition at 10 µM [%]
O=C(c1nc2c(C(F)(F)F)cc(-c3ccoc3)cn2c1Cl)N1CC[C@H](c2ccccc2)C1 [Compound 261, (3-Chloro-6-furan-3-yl-8-trifluoromethyl-imidazo[1,2-a]pyridin-2-yl)-(3-(R)-phenyl-pyrrolidin-1-yl)-methanone] | 87.9
O=C(c1nc2c(C(F)(F)F)cc(-c3ccoc3)cn2c1Cl)N1CC[C@@H](c2ccccc2)C1 [Compound 262, (3-Chloro-6-furan-3-yl-8-trifluoromethyl-imidazo[1,2-a]pyridin-2-yl)-(3-(S)-phenyl-pyrrolidin-1-yl)-methanone] | 97.3
O=C(NCc1cccs1)c1nc2c(-c3ccoc3)cc(-c3ccccc3)cn2c1Cl [Compound 263] | 60.3
CCN(CC)C(=O)/C=C/c1cc(-c2ccccc2)cn2c(Cl)c(C(=O)NCc3cccs3)nc12 [Compound 268, 3-Chloro-8-((E/Z)-2-diethylcarbamoyl-vinyl)-6-phenyl-imidazo[1,2-a]pyridine-2-carboxylic Acid (thiophen-2-ylmethyl)-amide] | 40.2
O=C(c1nc2c(C(F)(F)F)cc(-c3ccoc3)cn2c1Cl)N1CCC(c2ccccc2F)CC1 [Compound 275, (3-chloro-6-furan-3-yl-8-trifluoromethyl-imidazo[1,2-a]pyridine-2-yl)-[4-(2-fluoro-phenyl)-piperidin-1-yl]-methanone] | 97.8
O=C(c1nc2c(C(F)(F)F)cc(-c3ccoc3)cn2c1Cl)N1CCC(c2cccc(F)c2)CC1 [Compound 276, (3-Chloro-6-furan-3-yl-8-trifluoromethyl-imidazo[1,2-a]pyridine-2-yl)-[4-(3-fluoro-phenyl)-piperidin-1-yl]-methanone] | 74
O=C(c1nc2c(C(F)(F)F)cc(-c3ccoc3)cn2c1Cl)N1CCC(c2ccc(F)cc2)CC1 [Compound 277, (3-Chloro-6-furan-3-yl-8-trifluoromethyl-imidazo[1,2-a]pyridine-2-yl)-[4-(4-fluoro-phenyl)-piperidin-1-yl]-methanone] | 71.7
O=C(NCc1cccs1)c1nc2c(C(F)(F)F)cc(-c3cc[nH]c3)cn2c1Cl [Compound 279, 3-Chloro-6-(1H-pyrrol-3-yl)-8-trifluoromethyl-imidazo[1,2-a]pyridine-2-carboxylic Acid(thiophen-2-ylmethyl)-amide] | 95.8
Cn1cc(-c2cc(C(F)(F)F)c3nc(C(=O)NCc4cccs4)c(Cl)n3c2)cn1 [Compound 280, 3-Chloro-6-(1-methyl-1H-pyrazol-4-yl)-8-trifluoromethyl-imidazo[1,2-a]pyridine-2-carboxylic Acid (thiophen-2-ylmethyl)-amide] | 83.9
CC(C)(C)OC(=O)n1cccc1-c1cc(C(F)(F)F)c2nc(C(=O)NCc3cccs3)c(Cl)n2c1 [Compound 281, 2-{3-Chloro-2-[(thiophen-2-ylmethyl)-carbamoyl]-8-trifluoromethyl-imidazo[1,2-a]pyridin-6-yl}-pyrrole-1-carboxylic Acid Tert-butyl Ester] | 69.3
O=C(NCc1cccs1)c1nc2c(C(F)(F)F)cc(C3=CCCCC3)cn2c1Cl [Compound 282, 3-Chloro-6-cyclohex-1-enyl-8-trifluoromethyl-imidazo[1,2-a]pyridine-2-carboxylic acid (thiophen-2-ylmethyl)-amide] | 97.6
O=C(NCc1cccs1)c1nc2c(C(F)(F)F)cc(-c3ccn[nH]3)cn2c1Cl [Compound 283, 3-Chloro-6-(2H-pyrazol-3-yl)-8-trifluoromethyl-imidazo[1,2-a]pyridine-2-carboxylic Acid(thiophen-2-ylmethyl)-amide] | 87.5
O=C(NCc1cccs1)c1nc2c(C(F)(F)F)cc(C3=CCCCO3)cn2c1Cl [Compound 284, 3-Chloro-6-(5,6-dihydro-4H-pyran-2-yl)-8-trifluoromethyl-imidazo[1,2-a]pyridine-2-carboxylic Acid (thiophen-2-ylmethyl)-amide] | 98.8
O=C(NCc1cccs1)c1nc2c(C(F)(F)F)cc(-c3cnn(Cc4ccccc4)c3)cn2c1Cl [Compound 285, 6-(1-Benzyl-1H-pyrazol-4-yl)-3-chloro-8-trifluoromethyl-imidazo[1,2-a]pyridine-2-carboxylic Acid (thiophen-2-ylmethyl)-amide] | 71.8
CN(C)c1cccc(-c2cc(C(F)(F)F)c3nc(C(=O)NCc4cccs4)c(Cl)n3c2)c1 [Compound 286, 3-Chloro-6-(3-dimethylamino-phenyl)-8-trifluoromethyl-imidazo[1,2-a]pyridine-2-carboxylic Acid (thiophen-2-ylmethyl)-amide] | 57.9
O=C(NCc1cccs1)c1nc2c(C(F)(F)F)cc(/C=C/c3ccccc3)cn2c1Cl [Compound 287, 3-Chloro-6-styryl-8-trifluoromethyl-imidazo[1,2-a]pyridine-2-carboxylic Acid (thiophen-2-ylmethyl)-amide] | 52.3

From US20120121540A1 (priority 2007, published 2012)
